Source: patent US20070123500A1, “Prodrugs of ERbeta-selective substances, processes for their preparation and pharmaceutical compositions comprising these compounds” (priority 2005, published 2007)

Tests used:
human carboanhydrase I = human carboanhydrase I (Homo sapiens, UniProt P00915); assay: Carboanhydrase inhibition, photometric, nitrophenyl acetate conversion (CA I); assay type: biochemical; settings: read-out: CAI IC50
Text: (§1) b) Carboanhydrase Inhibition—Test Principle and Experimental Description:
(§2) Photometric determination of the inhibition of human carboanhydrase I or II by sulphonamides or sulphamates on microtitre plates with the aid of the enzymatic conversion of nitrophenyl acetate with a colour change from colourless to yellow.

human carboanhydrase II = human carboanhydrase II (Homo sapiens, UniProt P00918); assay: Carboanhydrase inhibition, photometric, nitrophenyl acetate conversion (CA II); assay type: biochemical; settings: read-out: CAII IC50
Text: as §1, §2

[1] = Blood-plasma concentration ratio in rat blood; assay type: in vitro ADME; settings: freshly obtained heparinized whole blood
Experimental: (§3) a) Blood-plasma Concentration Ratio—Test Principle and Experimental Description:
(§4) The SO2—NH2 group of the substances according to the invention can lead to a concentration in erythrocytes as a result of binding to carboanhydrases.
(§5) Freshly obtained, heparinized blood from a rat is treated with a defined amount of active compound. The active compound concentration in the plasma obtained therefrom is measured against a calibration curve of spiked (with a known active compound concentration) plasma. The blood-plasma ratio is calculated from the measured concentration and the theoretical concentration.
(§6) In contrast to the results published in WO 01/91797, the concentration ratios of the compounds according to the invention between erythrocytes and plasma are not in a range from 10-1000:1, but in the range <10:1.

[2] = Blood/plasma ratio in human erythrocytes; assay type: in vitro ADME; settings: human erythrocytes (blood)
Experimental: as §3, §4, §5, §6

Chain of human carboanhydrase I (P00915 whole entry): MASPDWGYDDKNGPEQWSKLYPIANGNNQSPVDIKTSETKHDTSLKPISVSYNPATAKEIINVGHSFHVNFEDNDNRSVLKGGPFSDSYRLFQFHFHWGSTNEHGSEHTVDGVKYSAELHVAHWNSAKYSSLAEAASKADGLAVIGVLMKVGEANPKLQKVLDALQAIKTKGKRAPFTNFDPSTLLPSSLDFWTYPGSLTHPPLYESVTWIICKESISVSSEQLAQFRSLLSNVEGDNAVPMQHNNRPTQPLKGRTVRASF

Row | Structure (SMILES) | IC50 (human carboanhydrase I) | IC50 (human carboanhydrase II) | blood plasma ratio [1] | blood plasma ratio [2]
1 | C[C@]12CC[C@@H]3c4ccc(OS(N)(=O)=O)cc4CC[C@H]3[C@@H]1CC[C@@H]2O [Oestradiol 3-sulphamate, reference compound] | 0.157 ± 0.0106 µM | – | – | –
2 | C=C[C@]12CC[C@]3(C)C[C@H](OC(=O)c4cccc(S(N)(=O)=O)c4)C[C@H]3[C@@H]1CCc1cc(O)ccc12 [3-Hydroxy-9α-vinyloestra-1,3,5(10)-trien-16α-yl 3′-sulphamoylbenzoate] | 3.4 µM | 490 nM | – | –
3 | C=C[C@]12CC[C@]3(C)[C@@H](F)[C@H](OC(=O)c4cccc(S(N)(=O)=O)c4)C[C@H]3[C@@H]1CCc1cc(O)ccc12 [17β-Fluoro-3-hydroxy-9α-vinyloestra-1,3,5(10)-trien-16α-yl 3′-sulphamoylbenzoate] | 3.7 µM | 720 nM | ~3.7 | 1.2
4 | C=C[C@]12CC[C@]3(C)[C@@H](F)[C@H](OC(=O)c4ccccc4)C[C@H]3[C@@H]1CCc1cc(O)ccc12 [17β-Fluoro-3-hydroxy-9α-vinyloestra-1,3,5(10)-trien-16α-yl benzoate, reference compound] | > 10 µM | > 10000 nM | – | –
